According to ChEMBL document CHEMBL2401681 (Bioorg Med Chem Lett, 2013):

Tests used:
[1] = target: T1, Estrogen receptor beta (Homo sapiens, UniProt Q92731); assay: Agonist activity at human Gal4-ERbeta by reporter gene assay
[2] = target: T2, Estrogen receptor (Homo sapiens, UniProt P03372); assay: Agonist activity at human Gal4-ERalpha by reporter gene assay
T2 sequence (P03372 whole entry): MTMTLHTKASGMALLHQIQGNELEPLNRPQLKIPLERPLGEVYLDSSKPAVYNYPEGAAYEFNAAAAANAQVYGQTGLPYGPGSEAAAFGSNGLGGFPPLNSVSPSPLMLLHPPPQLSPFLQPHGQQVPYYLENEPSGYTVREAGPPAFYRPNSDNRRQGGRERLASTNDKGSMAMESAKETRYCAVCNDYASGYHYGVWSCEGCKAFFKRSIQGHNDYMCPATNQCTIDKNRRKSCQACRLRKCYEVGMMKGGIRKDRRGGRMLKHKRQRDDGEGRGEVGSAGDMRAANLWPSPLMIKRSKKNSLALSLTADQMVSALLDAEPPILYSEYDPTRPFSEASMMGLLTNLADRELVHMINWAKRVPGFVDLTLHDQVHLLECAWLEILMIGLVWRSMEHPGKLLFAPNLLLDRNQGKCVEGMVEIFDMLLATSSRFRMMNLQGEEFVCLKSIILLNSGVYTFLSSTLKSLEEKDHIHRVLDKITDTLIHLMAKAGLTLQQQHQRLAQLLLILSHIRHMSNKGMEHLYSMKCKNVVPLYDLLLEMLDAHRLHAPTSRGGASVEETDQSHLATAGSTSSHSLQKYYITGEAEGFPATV

[3] = target: T1, Estrogen receptor beta; details: at 3 µM
Description: Antagonist activity at human Gal4-ERbeta assessed as inhibition of 17beta-estradiol-induced effect at 3 uM by reporter gene assay

[4] = target: T3, Estrogen receptor (Homo sapiens) (UniProt P03372); details: at 3 µM
T3 sequence (whole entry): T2 sequence (P03372 whole entry)
Description: Antagonist activity at human Gal4-ERalpha assessed as inhibition of 17beta-estradiol-induced effect at 3 uM by reporter gene assay

[5] = target: T1, Estrogen receptor beta; assay: Antagonist activity at human Gal4-ERbeta assessed as inhibition of 17beta-estradiol-induced effect by reporter gene assay
[6] = target: T3, Estrogen receptor (Homo sapiens); assay: Agonist activity at human Gal4-ERalpha at 10 uM by reporter gene assay relative to 17beta-estradiol
[7] = target: T2, Estrogen receptor; assay: Antagonist activity at human Gal4-ERalpha assessed as inhibition of 17beta-estradiol-induced effect by reporter gene assay
[8] = target: T4, Androgen receptor (Homo sapiens, UniProt P10275); assay: Antagonist activity at human pSG5-AR assessed as inhibition of dihydrotestosterone-induced effect by reporter gene assay
T4 sequence (P10275 whole entry): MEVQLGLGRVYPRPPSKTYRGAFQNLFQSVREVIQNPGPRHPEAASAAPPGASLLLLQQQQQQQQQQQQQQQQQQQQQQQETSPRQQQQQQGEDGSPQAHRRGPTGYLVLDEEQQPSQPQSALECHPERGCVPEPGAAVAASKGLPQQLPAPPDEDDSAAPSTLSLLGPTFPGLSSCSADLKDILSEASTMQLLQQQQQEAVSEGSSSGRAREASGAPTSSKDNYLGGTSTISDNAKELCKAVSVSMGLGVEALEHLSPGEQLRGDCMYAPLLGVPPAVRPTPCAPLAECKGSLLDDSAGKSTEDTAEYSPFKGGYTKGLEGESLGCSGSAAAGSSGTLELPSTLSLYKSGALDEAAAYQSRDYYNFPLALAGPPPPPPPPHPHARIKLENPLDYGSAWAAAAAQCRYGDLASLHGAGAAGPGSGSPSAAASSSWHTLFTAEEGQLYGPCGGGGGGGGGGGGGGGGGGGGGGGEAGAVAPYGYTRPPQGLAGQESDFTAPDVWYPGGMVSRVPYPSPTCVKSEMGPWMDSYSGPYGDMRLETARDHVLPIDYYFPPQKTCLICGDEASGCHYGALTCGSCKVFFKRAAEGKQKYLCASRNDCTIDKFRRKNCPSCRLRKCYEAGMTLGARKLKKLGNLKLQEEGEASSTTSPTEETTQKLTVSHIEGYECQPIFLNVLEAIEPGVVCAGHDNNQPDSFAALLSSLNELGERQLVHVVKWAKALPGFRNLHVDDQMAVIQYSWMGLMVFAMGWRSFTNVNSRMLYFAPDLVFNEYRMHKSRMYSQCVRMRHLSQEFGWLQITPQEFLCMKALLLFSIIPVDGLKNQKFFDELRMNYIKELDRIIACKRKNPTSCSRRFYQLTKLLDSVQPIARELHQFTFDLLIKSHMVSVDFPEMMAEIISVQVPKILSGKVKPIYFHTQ

T1 sequence (Q92731 whole entry, the tested form may be a part): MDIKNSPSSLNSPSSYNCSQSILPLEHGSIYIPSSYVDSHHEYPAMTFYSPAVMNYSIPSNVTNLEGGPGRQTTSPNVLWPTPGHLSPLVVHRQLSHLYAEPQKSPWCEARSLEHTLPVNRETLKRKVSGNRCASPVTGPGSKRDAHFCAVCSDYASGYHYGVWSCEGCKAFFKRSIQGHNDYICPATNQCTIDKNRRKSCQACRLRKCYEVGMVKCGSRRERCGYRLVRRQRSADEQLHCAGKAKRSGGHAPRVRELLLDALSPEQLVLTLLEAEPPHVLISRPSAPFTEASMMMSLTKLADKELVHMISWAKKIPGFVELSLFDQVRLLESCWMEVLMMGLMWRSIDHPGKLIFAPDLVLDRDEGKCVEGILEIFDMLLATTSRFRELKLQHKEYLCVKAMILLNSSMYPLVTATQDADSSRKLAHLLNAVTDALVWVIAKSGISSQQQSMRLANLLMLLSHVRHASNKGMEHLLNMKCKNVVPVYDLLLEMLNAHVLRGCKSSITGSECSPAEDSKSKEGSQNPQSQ

| SMILES | EC50 [1] | EC50 [2] | IC50 [7] | IC50 ([5]; read-out: IC50) | further results |
| --- | --- | --- | --- | --- | --- |
| CCCc1cc(C(CC)(CC)c2ccc(O)c(CCC)c2)ccc1O | Not Active | Not Active | – | – | – |
| Oc1ccc(Cc2ccc(O)cc2)cc1 | – | – | – | – | EC50 ([1]; read-out: EC50): 1.9 µM; EC50 ([2]; read-out: EC50): 0.91 µM; inhibition [3]: 24%; inhibition [4]: 35% |
| Cc1cc(Cc2ccc(O)c(C)c2)ccc1O | – | – | – | – | EC50 ([1]; read-out: EC50): 5.5 µM; IC50 [5]: Not Active; Activity [6]: 23%; inhibition [4]: 26% |
| Cc1cc(C2(c3ccc(O)c(C)c3)CCCCC2)ccc1O | Not Active | Not Active | 0.23 µM | 0.79 µM | – |
| CCCCC(CCCC)(c1ccc(O)c(CCC)c1)c1ccc(O)c(CCC)c1 | Not Active | Not Active | – | – | – |
| Oc1ccc(C2(c3ccc(O)cc3)CCCCC2)cc1 | Not Active | Not Active | 0.52 µM | 0.56 µM | – |
| Oc1ccc(C2(c3ccc(O)cc3)CCCC2)cc1 | Not Active | Not Active | 0.17 µM | 0.27 µM | – |
| CCCc1cc(C(CCC)(CCC)c2ccc(O)c(CCC)c2)ccc1O | Not Active | Not Active | – | – | – |
| CC[Si](CC)(c1ccc(O)c(C)c1)c1ccc(O)c(C)c1 | Not Active | Not Active | 0.072 µM | 0.8 µM | IC50 [8]: 1.9 µM |
| CCC(CC)(c1ccc(O)c(C)c1)c1ccc(O)c(C)c1 | – | Not Active | 0.025 µM | 0.26 µM | IC50 [8]: 4.5 µM |
| CCCCC(CCCC)(c1ccc(O)cc1)c1ccc(O)cc1 | Not Active | Not Active | 0.079 µM | 0.18 µM | – |
| CCCCC(CCCC)(c1ccc(O)c(CC)c1)c1ccc(O)c(CC)c1 | Not Active | Not Active | 2.9 µM | 4.5 µM | – |
| CCC(CC)(c1ccc(O)cc1)c1ccc(O)cc1 | – | Not Active | 0.086 µM | 0.093 µM | – |
| CCCC(CCC)(c1ccc(O)cc1)c1ccc(O)cc1 | – | Not Active | 0.099 µM | 2.2 µM | – |
| Cc1cc(C(C)(C)c2ccc(O)c(C)c2)ccc1O | – | – | – | – | Activity [6]: 31% |
| Cc1cc(C2(c3ccc(O)c(C)c3)CCCC2)ccc1O | Not Active | Not Active | 0.084 µM | 0.77 µM | – |
| CCC(CC)(c1ccc(N)c(C)c1)c1ccc(O)c(C)c1 | Not Active | Not Active | 0.098 µM | 0.043 µM | IC50 [8]: 5.4 µM |
| CCC(CC)(c1ccc(O)cc1)c1ccc(O)c(C)c1 | – | Not Active | 0.11 µM | 0.38 µM | – |
| CCC(CC)(c1cc(C)c(O)c(C)c1)c1cc(C)c(O)c(C)c1 | Not Active | Not Active | 0.074 µM | 0.3 µM | – |
| CCCCC(CCCC)(c1ccc(O)c(C)c1)c1ccc(O)c(C)c1 | Not Active | Not Active | 0.014 µM | 0.15 µM | – |
| CCCC(CCC)(c1ccc(O)c(C)c1)c1ccc(O)c(C)c1 | Not Active | Not Active | 0.0049 µM | 0.14 µM | IC50 [8]: 25 µM |
| CC(C)(c1ccc(O)cc1)c1ccc(O)cc1 [BISPHENOL A] | – | – | – | – | inhibition [3]: 25%; Activity [6]: 33%; inhibition [4]: 38%; IC50 [8]: 5.9 µM |
| CCCC[Si](CCCC)(c1ccc(O)c(C)c1)c1ccc(O)c(C)c1 | Not Active | Not Active | – | – | IC50 [5]: Not Active; IC50 [8]: 8.2 µM |
| Cc1cc(C(C)(C)c2ccc(O)cc2)ccc1O | – | – | – | – | inhibition [3]: 26%; Activity [6]: 26%; inhibition [4]: 48% |
| CCc1cc(C(CC)(CC)c2ccc(O)c(CC)c2)ccc1O | Not Active | Not Active | 0.23 µM | 1.3 µM | – |
| CCCC(CCC)(c1ccc(O)c(CC)c1)c1ccc(O)c(CC)c1 | Not Active | Not Active | 0.49 µM | 2.6 µM | – |
